{"source": "paper PMC10796436", "about": "“Peptidyl nitroalkene inhibitors of main protease rationalized by computational and crystallographic investigations as antivirals against SARS-CoV-2” (Communications Chemistry, 2024)", "key": {"Permeability, PAMPA": {"experiment": "Permeability, PAMPA", "assay_type": "in vitro ADME", "details": "UV-quantified, 2–7 h", "experimental": "Permeability. General principle after Lit.66 Incubation setup: donor (top) plate (Sigma Aldrich, MAIPNTR10), 5 µL artificial membrane (1 % (w/v) L-α-Phosphatidylcholin, Sigma Aldrich P3556, in n-dodecane, Sigma Aldrich 8205430100), acceptor (bottom) plate (Greiner, 655074).\nMeasurement setup – UV spectroscopy: UV-transparent measurement plate (Greiner UV-Star®, 655801), Tecan Spark® well plate reader, 200 µL sample volume, λ = 200–650 nm. Analysis was performed with AUC function in GraphPad Prism using the indicated wavelength range.\nSigma D5652; pH 7.4 or TRIS 50 mM pH 7.4) aqueous solution with varying final contents of ACN or DMSO as indicated. (“donor solution”). Similarly prepared solutions (buffer + solvent) were used as “acceptor solutions”. 150 µL of donor solution was applied onto the artificial membrane which was applied first to the donor plate. This was sealed (Greiner, 676070, Viewseal sealer). 400 µL of acceptor solution was applied to the acceptor plate. […] After this time, acceptor solution was analyzed with UV spectroscopy. Reference solutions were prepared by simply mixing the indicated volumes of donor and acceptor solutions at the start of the incubation period and analyzed later with the acceptor solutions. […]\nAfter the incubation period, the reference solution was analyzed by LCMS as described under […]\nNo permeation can be observed in any of the UV-quantified experiments. […]"}, "M^pro [1]": {"target": "T1, M^pro (Severe acute respiratory syndrome coronavirus 2, UniProt P0DTD1)", "assay_type": "biochemical", "details": "for Fluorescence reading (progress curve): triplicate wells", "experimental": "Buffer: 20 mM Tris, 0.1 mM EDTA, 1 mM DTT, 200 mM NaCl pH = 7.5. For the dilution assay Nirmatrelvir[21] was used as a reversible control and LM188[54] as an irreversible control (Fig. 10).\nThe incubation was done at RT for 30 min in assay buffer. DMSO was used as a control. After incubation the Enzyme/Inhibitor (or DMSO) mixtures were diluted 100-fold in assay buffer.\nThe preincubation was done in assay buffer (20 mM Tris, 0.1 mM EDTA, 1 mM DTT, 200 mM NaCl, pH = 7.5), at RT for 30 min. After incubation the mixtures were diluted […]\nproteolytic activity of the enzyme was measured as described for the enzymatic assays using the […]\nactivity was measured over 1 h.\nInhibition assay58. Trypsin: Enzyme: bovine trypsin purchased from Sigma-Aldrich (St. Louis, […]\nSubstrate: Cbz-FR-AMC purchased from Bachem (Bubendorf, Switzerland), [Substrate]: 40 µM […]\nThe activity against bovine trypsin was tested at 20 µM inhibitor concentration. […]"}, "M^pro [2]": {"target": "T1, M^pro", "experiment": "Binding to M^pro by ultracentrifugation (sedimentation method)"}, "in vitro": {"experiment": "in vitro", "details": "human"}, "M^pro [3]": {"target": "T1, M^pro", "experiment": "Binding to M^pro by ITC", "design": "DP / DH: unit not given here"}}, "note": "Several values for one entry are separate records, joined by “and”; a condition that tells them apart may be missing. Equal entries are not always repeated. Where two headings read alike, the source gives them in different places."}
{"smiles": "COc1cccc2[nH]c(C(=O)N[C@@H](CC(C)C)C(=O)N[C@H](/C=C/[N+](=O)[O-])C[C@@H]3CCNC3=O)cc12", "note": "[FGA146]", "values": [{"measurement": "permeation", "setting": "Permeability, PAMPA", "value": "No permeation"}, {"measurement": "Fluorescence reading (progress curve)", "setting": "M^pro [1]; Time 180.071 s", "value": "702 and 681 and 686"}, {"measurement": "Fluorescence reading (progress curve)", "setting": "M^pro [1]; Time 210.081 s", "value": "743 and 723 and 735"}, {"measurement": "Fluorescence reading (progress curve)", "setting": "M^pro [1]; Time 240.095 s", "value": "788 and 769 and 779"}, {"measurement": "Fluorescence reading (progress curve)", "setting": "M^pro [1]; Time 270.113 s", "value": "832 and 815 and 822"}, {"measurement": "Fluorescence reading (progress curve)", "setting": "M^pro [1]; Time 300.118 s", "value": "871 and 859 and 876"}, {"measurement": "Fluorescence reading (progress curve)", "setting": "M^pro [1]; Time 330.126 s", "value": "913 and 895 and 906"}, {"measurement": "Fluorescence reading (progress curve)", "setting": "M^pro [1]; Time 360.134 s", "value": "943 and 930 and 957"}, {"measurement": "Fluorescence reading (progress curve)", "setting": "M^pro [1]; Time 390.141 s", "value": "989 and 974 and 988"}, {"measurement": "Fluorescence reading (progress curve)", "setting": "M^pro [1]; Time 420.149 s", "value": "1026 and 1011 and 1031"}, {"measurement": "Fluorescence reading (progress curve)", "setting": "M^pro [1]; Time 450.157 s", "value": "1063 and 1040"}, {"measurement": "Fluorescence reading (progress curve)", "setting": "M^pro [1]; Time 2881.2 s", "value": "2210 and 2162 and 2202"}, {"measurement": "Fluorescence reading (progress curve)", "setting": "M^pro [1]; Time 2911.21 s", "value": "2205 and 2168 and 2199"}, {"measurement": "Fluorescence reading (progress curve)", "setting": "M^pro [1]; Time 2941.22 s", "value": "2214 and 2173 and 2206"}, {"measurement": "Fluorescence reading (progress curve)", "setting": "M^pro [1]; Time 2971.24 s", "value": "2207 and 2185 and 2213"}, {"measurement": "Fluorescence reading (progress curve)", "setting": "M^pro [1]; Time 3001.25 s", "value": "2222 and 2185 and 2232"}, {"measurement": "Fluorescence reading (progress curve)", "setting": "M^pro [1]; Time 3031.26 s", "value": "2246 and 2178 and 2225"}, {"measurement": "Fluorescence reading (progress curve)", "setting": "M^pro [1]; Time 3061.27 s", "value": "2233 and 2191 and 2237"}, {"measurement": "Fluorescence reading (progress curve)", "setting": "M^pro [1]; Time 3091.28 s", "value": "2243 and 2199 and 2235"}, {"measurement": "Fluorescence reading (progress curve)", "setting": "M^pro [1]; Time 3121.29 s", "value": "2244 and 2187 and 2224"}, {"measurement": "Fluorescence reading (progress curve)", "setting": "M^pro [1]; Time 3151.3 s", "value": "2247 and 2204 and 2241"}, {"measurement": "Fluorescence reading (progress curve)", "setting": "M^pro [1]; Time 3181.31 s", "value": "2224 and 2196 and 2245"}, {"measurement": "Fluorescence reading (progress curve)", "setting": "M^pro [1]; Time 3211.32 s", "value": "2250 and 2188 and 2275"}, {"measurement": "Fluorescence reading (progress curve)", "setting": "M^pro [1]; Time 3241.33 s", "value": "2234 and 2200"}, {"measurement": "Fluorescence reading (progress curve)", "setting": "M^pro [1]; Time 3271.34 s", "value": "2236 and 2195 and 2245"}, {"measurement": "Fluorescence reading (progress curve)", "setting": "M^pro [1]; Time 3301.35 s", "value": "2233 and 2201 and 2238"}, {"measurement": "Fluorescence reading (progress curve)", "setting": "M^pro [1]; Time 3331.36 s", "value": "2246 and 2198 and 2261"}, {"measurement": "Fluorescence reading (progress curve)", "setting": "M^pro [1]; Time 3361.37 s", "value": "2261 and 2203 and 2250"}, {"measurement": "Fluorescence reading (progress curve)", "setting": "M^pro [1]; Time 3391.39 s", "value": "2251 and 2199 and 2248"}, {"measurement": "Fluorescence reading (progress curve)", "setting": "M^pro [1]; Time 3421.39 s", "value": "2261 and 2206 and 2226"}, {"measurement": "Fluorescence reading (progress curve)", "setting": "M^pro [1]; Time 3451.41 s", "value": "2253 and 2215 and 2257"}, {"measurement": "Fluorescence reading (progress curve)", "setting": "M^pro [1]; Time 3481.42 s", "value": "2274 and 2215 and 2263"}, {"measurement": "Fluorescence reading (progress curve)", "setting": "M^pro [1]; Time 3511.43 s", "value": "2266 and 2207 and 2242"}, {"measurement": "Fluorescence reading (progress curve)", "setting": "M^pro [1]; Time 3541.44 s", "value": "2263 and 2215 and 2260"}, {"measurement": "Fluorescence reading (progress curve)", "setting": "M^pro [1]; Time 3571.45 s", "value": "2254 and 2212 and 2248"}, {"measurement": "recovery of M^pro activity after 100-fold dilution", "setting": "M^pro [1]; preincubation 30 min", "value": "seems to recover over time"}, {"measurement": "Fraction bound, Absorption", "setting": "M^pro [2]; ligand concentration 0.1", "value": 0.00706}, {"measurement": "Fraction bound, Fluorescence", "setting": "M^pro [2]; ligand concentration 0.1", "value": 0.00606}, {"measurement": "Fraction bound, Absorption", "setting": "M^pro [2]; ligand concentration 0.5", "value": 0.0199}, {"measurement": "Fraction bound, Fluorescence", "setting": "M^pro [2]; ligand concentration 0.5", "value": 0.0299}, {"measurement": "Fraction bound, Absorption", "setting": "M^pro [2]; ligand concentration 1", "value": 0.07275}, {"measurement": "Fraction bound, Fluorescence", "setting": "M^pro [2]; ligand concentration 1", "value": 0.06275}, {"measurement": "Fraction bound, Absorption", "setting": "M^pro [2]; ligand concentration 5", "value": 0.3362}, {"measurement": "Fraction bound, Fluorescence", "setting": "M^pro [2]; ligand concentration 5", "value": 0.3162}, {"measurement": "Fraction bound, Absorption", "setting": "M^pro [2]; ligand concentration 10", "value": 0.6468}, {"measurement": "Fraction bound, Fluorescence", "setting": "M^pro [2]; ligand concentration 10", "value": 0.623}, {"measurement": "Fraction bound, Absorption", "setting": "M^pro [2]; ligand concentration 25", "value": 0.9146}, {"measurement": "Fraction bound, Fluorescence", "setting": "M^pro [2]; ligand concentration 25", "value": 0.8218}, {"measurement": "Fraction bound, Absorption", "setting": "M^pro [2]; ligand concentration 50", "value": 0.9678}, {"measurement": "Fraction bound, Fluorescence", "setting": "M^pro [2]; ligand concentration 50", "value": 0.9995}, {"measurement": "Fraction bound, Absorption", "setting": "M^pro [2]; ligand concentration 100", "value": 1.004}, {"measurement": "Fraction bound, Fluorescence", "setting": "M^pro [2]; ligand concentration 100", "value": 0.9916}, {"measurement": "Kd", "setting": "M^pro [2]; ultracentrifugation, 25 °C", "value": "7.28 ± 0.58", "unit": "µM"}]}
{"smiles": "CC(C)C[C@H](NC(=O)OCc1ccccc1)C(=O)N[C@H](/C=C/[N+](=O)[O-])C[C@@H]1CCNC1=O", "note": "[FGA147]", "values": [{"measurement": "CC50", "setting": "in vitro", "value": "> 100", "unit": "µM"}, {"measurement": "Kd", "setting": "M^pro [3]; ITC, 25 °C", "value": "2.86 ± 0.25", "unit": "µM"}, {"measurement": "DH", "setting": "M^pro [3]; Molar ratio 0.39455", "value": -0.9026}, {"measurement": "DH", "setting": "M^pro [3]; Molar ratio 0.72682", "value": -0.8799}, {"measurement": "DH", "setting": "M^pro [3]; Molar ratio 1.06223", "value": -0.8369}, {"measurement": "DP", "setting": "M^pro [3]; Time 0.08333 min", "value": -0.00244}, {"measurement": "DP", "setting": "M^pro [3]; Time 0.10000 min", "value": -0.00119}, {"measurement": "DP", "setting": "M^pro [3]; Time 0.11667 min", "value": -0.00067}]}
